Reference: patent publication US20230058134A1, “ALDOSE REDUCTASE INHIBITORS FOR THE TREATMENT OF ACUTE RESPIRATORY DISTRESS SYNDROME, ACUTE LUNG INFLAMMATION/INJURY, CARDIAC INJURY AND ANTI-VIRAL THERAPY” (Applied Therapeutics, Inc., priority 2020, published 2023)
Entries after “also recorded” stand apart in the source; their conditions may differ.

How the values were obtained:
[1] = tested on: COVID-19 with severe ARDS; test: Treatment of critical COVID-19 patients with severe ARDS under Emergency Investigational New Drug Applications; type: in vivo, human; conditions: 1500 mg twice a day
Experimental: Five critical COVID-19 patients admitted to the intensive care unit with severe ARDS were treated with Compound A (caficrestat) 1500 mg twice a day. All patients were on 100% high flow oxygen, had failed all other available treatment options, including anti-IL^6/anti-IL-17 therapy, and were at high risk of rapid progression to mechanical ventilation. The patients were treated under Emergency Investigational New Drug Applications as the last option to prevent mortality.

[2] = tested on: COVID-19 with signs of ARDS and/or ALI; test: Treatment of Critical COVID-19 (single-patient example written in present tense); type: in vivo; conditions: one patient, 1500 mg oral twice a day
COVID-19 infection = test: Open-label prospective phase 2 study of Compound A in high risk patients hospitalized with COVID-19, with matched registry controls; conditions: for Median LOS (95% CI): length of hospital stay, 1500 mg twice daily up to 14 days; for Estimated difference in median LOS / Estimated difference in median LOS (95% CI): Hodges-Lehmann estimate
[3] = 10 participants, 1500 mg twice daily
[4] = eight participants who survived and were discharged

SMILES: O=C(O)Cc1nn(Cc2nc3cc(C(F)(F)F)ccc3s2)c(=O)c2nccnc12 [Compound A, caficrestat]
- patients recovered and discharged from the hospital ([1]; five ICU patients on 100% high flow oxygen): Four of the five
- patients who died ([1]; five ICU patients, patient had a do not resuscitate order): One patient
- signs of ARDS and/or ALI [2]: diminished
- viral burden [2]: reduced
- adverse events leading to early discontinuation of treatment (COVID-19 infection; [3]): mild-moderate grade adverse events possibly linked to study drug in three participants
- safety laboratory monitoring during hospitalization (COVID-19 infection; [3]): did not demonstrate any treatment-related abnormal findings
- percent mortality (COVID-19 infection; 10 participants, death during index hospitalization due to COVID-19 complications): 20%
- Median LOS (95% CI) (COVID-19 infection; All Subjects, N=10): 5 (4, 29)
- Estimated difference in median LOS (COVID-19 infection; All Subjects, Compound A vs Match 1 control group (N=16)): 1.5
- Estimated difference in median LOS (COVID-19 infection; All Subjects, Compound A vs Match 2 control group (N=60)): 14
- Median LOS (95% CI) (COVID-19 infection; Surviving Subjects, N=8): 5 (4, 35)
- Estimated difference in median LOS (95% CI) (COVID-19 infection; Surviving Subjects, Compound A vs Match 1 control group (N=11)): 1 (−2, 19)
- Estimated difference in median LOS (95% CI) (COVID-19 infection; Surviving Subjects, Compound A vs Match 2 control group (N=43)): 9 (0, 42)
- median hospital length of stay (COVID-19 infection; [4]): 5 days
- range of hospital length of stay (COVID-19 infection; [4]): 3 to 35 days
- safety and tolerability (COVID-19 infection; hospitalized COVID-19 patients with diabetes mellitus and hypertension, 1500 mg twice daily): generally safe and well tolerated
- participants who survived and were discharged from the hospital (COVID-19 infection; of 10 treated participants): Eight of the ten treated patients survived
- progression to mechanical ventilation (COVID-19 infection; ten treated patients): None of the treated patients progressed to mechanical ventilation
- mortality compared with matched control groups (COVID-19 infection; vs control group 1 (31.3%) and control group 2 (28.3%), vs non-high risk population): numerically lower; also recorded: decreased to the level observed for the non-high risk population
- length of hospital stay compared with matched control groups (COVID-19 infection; vs the two matched control groups): numerically less
